Experimental data: patent US8680012B2, “4-phenyl-pyrane-3,5-diones,4-phenyl-thiopyrane-3,6-diones and cyclohexanetriones as novel herbicides” (Syngenta Crop Protection LLC, priority 2006, dated 2014)

How the values were obtained:
Format in all cases: in vivo
Setaria faberi (SETFA) [1] = experiment: Example B pre-emergence herbicidal activity, glasshouse pot test; settings: 312 h, rate 1000 g/ha, evaluated after 13 days, read-out: Pre-emergence activity SETFA (100=total damage to plant; 0=no damage to plant)
Outline: (§1)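 Compound sprayed in acetone/water (50:50) plus 0.5% Tween 20 onto potted soil one day post-sowing, or onto seedlings after 8 days. Scored 0–100 for damage after 13 days.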

Solanum nigrum (SOLNI) [2] = experiment: as above; settings: 312 h, rate 1000 g/ha, evaluated after 13 days, read-out: Pre-emergence activity SOLNI (100=total damage to plant; 0=no damage to plant)
Outline: as §1

[3] = tested on: Echinochloa crus-galli (ECHCG); experiment: as above; settings: 312 h, rate 1000 g/ha, evaluated after 13 days, read-out: Pre-emergence activity ECHCG (100=total damage to plant; 0=no damage to plant)
Outline: as §1

[4] = tested on: Amaranthus retroflexus (AMARE); experiment: as above; settings: 312 h, rate 1000 g/ha, evaluated after 13 days, read-out: Pre-emergence activity AMARE (100=total damage to plant; 0=no damage to plant)
Outline: as §1

[5] = tested on: Alopecurus myosuroides (ALOMY); experiment: as above; settings: 312 h, rate 1000 g/ha, evaluated after 13 days, read-out: Pre-emergence activity ALOMY (100=total damage to plant; 0=no damage to plant)
Outline: as §1

Avena fatua (AVEFA) [6] = experiment: as above; settings: 312 h, rate 1000 g/ha, evaluated after 13 days, read-out: Pre-emergence activity AVEFA (100=total damage to plant; 0=no damage to plant)
Outline: as §1

Setaria faberi (SETFA) [7] = experiment: Example B post-emergence herbicidal activity, glasshouse pot test; settings: 312 h, rate 1000 g/ha, evaluated after 13 days, read-out: Post-emergence activity SETFA (100=total damage to plant; 0=no damage to plant)
Outline: as §1

Solanum nigrum (SOLNI) [8] = experiment: as above; settings: 312 h, rate 1000 g/ha, evaluated after 13 days, read-out: Post-emergence activity SOLNI (100=total damage to plant; 0=no damage to plant)
Outline: as §1

[9] = tested on: Echinochloa crus-galli (ECHCG); experiment: as above; settings: 312 h, rate 1000 g/ha, evaluated after 13 days, read-out: Post-emergence activity ECHCG (100=total damage to plant; 0=no damage to plant)
Outline: as §1

[10] = tested on: Amaranthus retroflexus (AMARE); experiment: as above; settings: 312 h, rate 1000 g/ha, evaluated after 13 days, read-out: Post-emergence activity AMARE (100=total damage to plant; 0=no damage to plant)
Outline: as §1

[11] = tested on: Alopecurus myosuroides (ALOMY); experiment: as above; settings: 312 h, rate 1000 g/ha, evaluated after 13 days, read-out: Post-emergence activity ALOMY (100=total damage to plant; 0=no damage to plant)
Outline: as §1

Avena fatua (AVEFA) [12] = experiment: as above; settings: 312 h, rate 1000 g/ha, evaluated after 13 days, read-out: Post-emergence activity AVEFA (100=total damage to plant; 0=no damage to plant)
Outline: as §1

Row | Compound | pest or weed control at 1000 g/ha (Setaria faberi (SETFA) [1]) | pest or weed control at 1000 g/ha (Solanum nigrum (SOLNI) [2]) | pest or weed control at 1000 g/ha [3] | pest or weed control at 1000 g/ha [4] | pest or weed control at 1000 g/ha [5] | pest or weed control at 1000 g/ha (Avena fatua (AVEFA) [6]) | pest or weed control at 1000 g/ha (Setaria faberi (SETFA) [7]) | pest or weed control at 1000 g/ha (Solanum nigrum (SOLNI) [8]) | pest or weed control at 1000 g/ha [9] | pest or weed control at 1000 g/ha [10] | pest or weed control at 1000 g/ha [11] | pest or weed control at 1000 g/ha (Avena fatua (AVEFA) [12])
1 | CCc1ccc(-c2ccc(Cl)cc2)cc1C1=C(OC(=O)COC)C(C)(C)OC(C)(C)C1=O [Compound D-12] | 100% | 0% | 100% | 0% | 90% | 60% | 100% | 0% | 100% | 0% | 90% | 90%
2 | CCOC(=O)OC1=C(c2cc(-c3ccc(Cl)cc3)ccc2CC)C(=O)C(C)(C)OC1(C)C [Compound D-13] | 90% | 0% | 90% | 0% | 50% | 20% | 100% | 0% | 100% | 0% | 60% | 0%
3 | CCc1ccc(-c2ccc(Cl)cc2)cc1C1=C(OC(=O)OCC(C)C)C(C)(C)OC(C)(C)C1=O [Compound D-14] | 90% | 0% | 60% | 0% | 50% | 20% | 100% | 0% | 100% | 0% | 20% | 10%
4 | C#CCOC(=O)OC1=C(c2cc(-c3ccc(Cl)cc3)ccc2CC)C(=O)C(C)(C)OC1(C)C [Compound D-15] | 100% | 0% | 100% | 0% | 80% | 60% | 100% | 0% | 100% | 0% | 80% | 60%
5 | CCc1ccc(-c2ccc(Cl)cc2)cc1C1=C(OC(=O)OC)C(C)(C)OC(C)(C)C1=O [Compound D-16] | 100% | 0% | 90% | 0% | 50% | 0% | 100% | 0% | 100% | 0% | 90% | 20%
6 | CCc1ccc(-c2ccc(Cl)cc2)cc1C1=C(OC(=O)OC(C)C)C(C)(C)OC(C)(C)C1=O [Compound D-17] | 90% | 0% | 80% | 0% | 20% | 0% | 100% | 0% | 100% | 10% | 60% | 20%
7 | CCc1ccc(-c2ccc(Cl)cc2)cc1C1=C(OC(=O)C(C)OC)C(C)(C)OC(C)(C)C1=O [Compound D-19] | 100% | 0% | 100% | 0% | 70% | 20% | 100% | 0% | 100% | 0% | 90% | 80%
